One series concerns the target T1, Human 5-HT4(d) (Homo sapiens, UniProt Q13639).
T1 construct: expressed in transfected cells
The series can be described thus: Agonist-induced cAMP elevation in human 5-HT4(d) transfected HEK293 cells. As to conditions: for Emax: HEK293, cAMP production normalized to the amount produced by 1,000 nM serotonin; for EC50: cAMP elevation (HTRF), human 5-HT4(d) transfected HEK293 cells. It counts as cell-based. The method, then:
Human 5-HT4(d) transfected HEK293 cells were established in-house. The cells were grown at 37° C. and 5% CO2 in DMEM supplemented with 10% FCS, 20 mM HEPES (pH 7.4), 200 μg/ml hygromycin B (Gibco), 100 units/ml penicillin and 100 μg/ml streptomycin.
The cells were grown to 60-80% confluence. On the previous day before treatment with compounds dialyzed FCS (Gibco) was substituted for normal and the cells were incubated overnight.
Compounds were prepared in 96-well plates (12.5 μl/well). The cells were harvested with PBS/1 mM EDTA, centrifuged and washed with PBS. At the beginning of the assay, cell pellet was resuspended in DMEM supplemented with 20 mM HEPES, 10 μM pargyline (Sigma) and 1 mM 3-isobutyl-1-methylxanthine (Sigma) at the concentration of 1.6×10^5 cells/ml and left for 15 min at room temperature. The reaction was initiated by addition of the cells into plates (12.5 μl/well). After incubation for 15 min at room temperature, 1% Triton X-100 was added to stop the reaction (25 μl/well) and the plates were left for 30 minutes at room temperature. Homogenous time-resolved fluorescence-based cAMP (Schering) detection was made according to the manufacturer's instruction. ARVOsx multilabel counter (Wallac) was used to measure HTRF (excitation 320 nm, emission 665 nm/620 nm, delay time 50 μs, window time 400 μs).
Data was analyzed based on the ratio of fluorescence intensity of each well at 620 nm and 665 nm followed by cAMP quantification using cAMP standard curve. Enhancement of cAMP production elicited by each compound was normalized to the amount of cAMP produced by 1,000 nM serotonin (Sigma).

Where a name gives a salt, the structure may show the parent alone.

T1 sequence (Q13639 1-360 isoform Q13639-3): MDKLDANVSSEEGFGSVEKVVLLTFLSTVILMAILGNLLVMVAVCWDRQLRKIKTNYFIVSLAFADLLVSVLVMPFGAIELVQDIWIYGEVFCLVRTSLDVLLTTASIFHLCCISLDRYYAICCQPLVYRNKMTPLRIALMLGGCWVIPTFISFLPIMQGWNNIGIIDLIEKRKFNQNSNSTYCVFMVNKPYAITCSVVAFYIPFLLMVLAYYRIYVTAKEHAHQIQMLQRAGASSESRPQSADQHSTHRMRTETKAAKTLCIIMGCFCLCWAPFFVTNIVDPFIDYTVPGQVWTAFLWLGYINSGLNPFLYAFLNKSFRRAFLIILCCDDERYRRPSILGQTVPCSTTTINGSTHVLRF

One may read the Emax as the size of the effect at its maximum, as opposed to the concentration needed. By EC50 is commonly meant the concentration needed to bring the measured effect to its halfway point. Read a high EC50 as a need for much substance. As usually defined, the melting point is the temperature, or range, at which the solid turns liquid. In turn, `O=C(O)C1(CN2CCC(COc3noc4cccc(OCC5CCCC5)c34)CC2)CCOCC1` [Example 22, 4-{[4-({[4-(Cyclopentylmethoxy)-1,2-benzisoxazol-3-yl]oxy}methyl)piperidin-1-yl]methyl}tetrahydro-2H-pyran-4-carboxylic acid] displayed a melting point of 185.6 °C. At Human 5-HT4(d), this molecule gave an Emax of 73% and an EC50 of 4.4 nM.

Consider `OC1(COc2cccc3onc(OCC4CCN(CC5(O)CCOCC5)CC4)c23)CCCC1` [Example 31, 4-({4-[{(4-[(1-Hydroxycyclopentyl)methoxy]-1,2-benzisoxazol-3-yl}oxy)methyl]piperidin-1-yl}-methyl)tetrahydro-2H-pyran-4-ol], for which the melting point is 136.5 °C. On Human 5-HT4(d), this molecule registered an Emax of 31% and an EC50 of 27 nM.

Regarding `O[C@@H]1CCC[C@@H]1Oc1cccc2onc(OCC3CCN(CC4(O)CCOCC4)CC3)c12` (relative stereo) [Example 36, 4-({4-[({4-[(cis-2-Hydroxycyclopentyl)oxy]-1,2-benzisoxazol-3-yl}oxy)methyl]piperidin-1-yl}methyl)-tetrahydro-2H-pyran-4-ol], the melting point was determined as 140.8 °C. At Human 5-HT4(d), this molecule returned an Emax of 52% and an EC50 of 1.9 nM.

Take `O=C(O)C1(CN2CCC(COc3noc4cccc(OC5CCOCC5)c34)CC2)CCCCC1` [Example 30, 1-{[4-({[4-(Tetrahydro-2H-pyran-4-yloxy)-1,2-benzisoxazol-3-yl]oxy}methyl)piperidin-1-yl]methyl}-cyclohexanecarboxylic acid]: the melting point was 157.1 °C. On Human 5-HT4(d), this molecule registered a maximal effect (Emax) of 88% and an EC50 of 19 nM.

Molecule `O=C1CCCC1Oc1cccc2onc(OCC3CCN(CC4(O)CCOCC4)CC3)c12` (stereo not shown) [Example 38, 2-{[3-({1-[(4-Hydroxytetrahydro-2H-pyran-4-yl)methyl]piperidin-4-yl}methoxy)-1,2-benzisoxazol-4-yl]oxy}cyclopentanone] displayed a melting point of 133.1 °C. Also, at Human 5-HT4(d), the maximal response (Emax) is 40% and it took 0.84 nM to reach a half-maximal effect (EC50).

On Human 5-HT4(d), `O=C(O)C1(CN2CCC(COc3noc4cccc(O[C@H]5CCC[C@@H]5O)c34)CC2)CCCC1` (relative stereo) [Example 33, 1-({4-[({4-[(trans-2-Hydroxycyclopentyl)oxy]-1,2-benzisoxazol-3-yl}oxy)methyl]piperidin-1-yl}methyl)cyclopentanecarboxylic acid] returned a maximal response (Emax) of 51% and an EC50 of 3.3 nM.

With `O=C(O)C1(CN2CCC(COc3noc4cccc(OC5CCOCC5)c34)CC2)CCOCC1` [Example 27, 4-{[4-({[4-(Tetrahydro-2H-pyran-4-yloxy)-1,2-benzisoxazol-3-yl]oxy}methyl)piperidin-1-yl]methyl}-tetrahydro-2H-pyran-4-carboxylic acid], on Human 5-HT4(d), the Emax turned out to be 71% and the half-maximal effective concentration (EC50) was 11 nM.

At Human 5-HT4(d), `O=C(O)C1(CN2CCC(COc3noc4cccc(O[C@H]5CC[C@@H](O)CC5)c34)CC2)CCOCC1` [Example 43, 4-({4-[({4-[(cis-4-Hydroxycyclohexyl)oxy]-1,2-benzisoxazol-3-yl}oxy)methyl]piperidin-1-yl}methyl)-tetrahydro-2H-pyran-4-carboxylic acid] gave a maximal effect (Emax) of 49% and a concentration for a half-maximal effect (EC50) of 3.3 nM.

Consider `O[C@H]1CCC[C@@H]1Oc1cccc2onc(OCC3CCN(CC4(O)CCOCC4)CC3)c12` (relative stereo) [Example 32, 4-({4-[({4-[(trans-2-Hydroxycyclopentyl)oxy]-1,2-benzisoxazol-3-yl}oxy)methyl]piperidin-1-yl}-methyl)tetrahydro-2H-pyran-4-ol], for which, on Human 5-HT4(d), the Emax is 40% and the response was half-maximal at 1.6 nM (EC50).

At Human 5-HT4(d), `OC1(CN2CCC(COc3noc4cccc(O[C@H]5CC[C@H](O)CC5)c34)CC2)CCOCC1` [Example 41, 4-({4-[({4-[(trans-4-Hydroxycyclohexyl)oxy]-1,2-benzisoxazol-3-yl}oxy)methyl]piperidin-1-yl}-methyl)tetrahydro-2H-pyran-4-ol] displayed an Emax of 44% and an EC50 of 3 nM.

With `O[C@H]1CC[C@H](Oc2cccc3onc(OCC4CCN(CC5(O)CCOCC5)CC4)c23)C1` (relative stereo) [Example 39, 4-({4-[({4-[(trans-3-Hydroxycyclopentyl)oxy]-1,2-benzisoxazol-3-yl}oxy)methyl]piperidin-1-yl}methyl)tetrahydro-2H-pyran-4-ol], on Human 5-HT4(d), the Emax came to 56% and a half-maximal response (EC50) required 1.3 nM.

As for `O=C(O)C1(CN2CCC(COc3noc4cccc(OCC5(CO)CCC5)c34)CC2)CCOCC1` [Example 49, 4-[(4-{[(4-{[1-(Hydroxymethyl)cyclobutyl]methoxy}-1,2-benzisoxazol-3-VI)oxy]methyl}piperidin-1-yl)methyl]tetrahydro-2H-pyran-4-carboxylic acid], at Human 5-HT4(d), the maximum response (Emax) was 40% and it took 65 nM to reach a half-maximal effect (EC50).

At Human 5-HT4(d), `O=C(O)C1(CN2CCC(COc3noc4cccc(O[C@H]5CC[C@H](O)CC5)c34)CC2)CCOCC1` [Example 42, 4-({4-[({4-[(trans-4-Hydroxycyclohexyl)oxy]-1,2-benzisoxazol-3-yl}oxy)methyl]piperidin-1-yl}-methyl)tetrahydro-2H-pyran-4-carboxylic acid] came in with an Emax of 67% and an EC50 of 18 nM.

With `O=C(O)C1(CCN2CCC(COc3noc4cccc(OC5CCCC5)c34)CC2)CCOCC1` [Example 25, 4-{2-[4-({[4-(Cyclopentyloxy)-1,2-benzisoxazol-3-yl]oxy}methyl)piperidin-1-yl]ethyl}tetrahydro-2H-Pyran-4-carboxylic acid], at Human 5-HT4(d), the Emax was 41% and a half-maximal response (EC50) required 3 nM.

On Human 5-HT4(d), `CC(C)COc1cccc2onc(OCC3CCN(CC4(O)CCOCC4)CC3)c12` [Example 8, 1-[(4-Hydroxytetrahydro-2H-pyran-4-yl)methyl]-4-{[(4-isobutoxy-1,2-benzisoxazol-3-yl)oxy]methyl}-piperidinium and its p-toluenesulfonate salt] came in with a maximum response (Emax) of 39% and a 50% effective concentration (EC50) of 2.6 nM.

At Human 5-HT4(d), `O=C(O)C1(CN2CCC(COc3noc4cccc(OCC(F)(F)F)c34)CC2)CCOCC1` [Example 1, 4-{[4-({[4-(2,2,2-Trifluoroethoxy)-1,2-benzisoxazol-3-yl]oxy}methyl)piperidin-1-yl]methyl}tetrahydro-2H-pyran-4-carboxylic acid] showed an Emax of 69% and a concentration for a half-maximal effect (EC50) of 1.5 nM.

Turning to `O=C(O)C1(CN2CCC(COc3noc4cccc(OCC5(CO)CCCC5)c34)CC2)CCOCC1` [Example 51, 4-[(4-{[(4-{[1-(Hydroxymethyl)cyclopentyl]methoxy}-1,2-benzisoxazole-3-yl)oxy]methyl}piperidin-1-yl)methyl]tetrahydro-2H-pyran-4-carboxylic acid], at Human 5-HT4(d), the maximal response (Emax) amounted to 33% and the concentration for a half-maximal effect (EC50) came to 27 nM.

In the case of `O=C(O)C1(CN2CCC(COc3noc4cccc(O[C@H]5CCC[C@@H]5O)c34)CC2)CCC1` (relative stereo) [Example 34, 1-({4-[({4-[(trans-2-Hydroxycyclopentyl)oxy]-1,2-benzisoxazol-3-yl}oxy)methyl]piperidin-1-yl}-methyl)cyclobutanecarboxylic acid], on Human 5-HT4(d), the Emax came out at 46% and the 50% effective concentration (EC50) stood at 2.7 nM.

With `O=C(O)C1(CN2CCC(COc3noc4cccc(OCC5(CO)CCCC5)c34)CC2)CCC1` [Example 52, 1-[(4-{[(4-{[1-(Hydroxymethyl)cyclopentyl]methoxy}-1,2-benzisoxazol-3-yl)oxy]methyl}piperidin-1-yl)methyl]cyclobutanecarboxylic acid], at Human 5-HT4(d), the Emax was found to be 41% and the EC50 amounted to 30 nM.

In the case of `CO[C@H]1CCC[C@@H]1Oc1cccc2onc(OCC3CCN(CC4(O)CCOCC4)CC3)c12` (relative stereo) [Example 35, 4-({4-[({4-[(trans-2-Methoxycyclopentyl)oxy]-1,2-benzisoxazol-3-yl}oxy)methyl]piperidin-1-yl}-methyl)tetrahydro-2H-pyran-4-ol and its 4-methylbenzenesulfonate], on Human 5-HT4(d), the Emax came to 56% and the EC50 came to 1.4 nM.

In the case of `O=C(O)[C@H]1CC[C@H](CN2CCC(COc3noc4cccc(O[C@H]5CC[C@@H](CO)CC5)c34)CC2)CC1` [Example 47, trans-4-[(4-{[(4-{[cis-4-(Hydroxymethyl)cyclohexyl]oxy}-1,2-benzisoxazol-3-yl)oxy]methyl}-Piperidin-1-yl)methyl]cyclohexanecarboxylic acid], on Human 5-HT4(d), the maximal response (Emax) turned out to be 71% and a half-maximal effect (EC50) was put at 5.3 nM.

On Human 5-HT4(d), `CO[C@@H]1CCC[C@@H]1Oc1cccc2onc(OCC3CCN(CC4(O)CCOCC4)CC3)c12` (relative stereo) [Example 37, 4-({4-[({4-[(cis-2-Methoxycyclopentyl)oxy]-1,2-benzisoxazol-3-yl}oxy)methyl]piperidin-1-yl}methyl)-tetrahydro-2H-pyran-4-ol and its oxalate salt] showed an Emax of 50% and a concentration for a half-maximal effect (EC50) of 8.8 nM.

The values are drawn from patent US8816090B2, “Benzisoxazole derivatives” (Pfizer Inc., priority 2005, dated 2014).
